The series in a line: Dissolution test for the capsules (USP I method, pH 1.2 HCl buffer). The format is physicochemical. Particulars: not granulated; in 5 minutes. The method, then: Dissolution tests were carried out on the capsules of Example 1 according to the USP I method (USP 24) (The United States Pharmacopeia 2001). A standard curve was prepared between 0.01 and 0.6 mg/ml ([…], r^2=0.9999). The medium used was 500 ml of pH 1.2 HCl buffer. The rotation rate of the baskets was 100 rpm, and the temperature of the medium was +37° C. (±0.5). Samples were taken at 5-minute intervals for the first half hour and thereafter at 10-minute intervals for the remaining 2 hours. L-cysteine was detected in flow-through cells (10 mm) at a wavelength of 213 nm. The results were calculated by using dissolution software. The system was equipped with a bath and a pump (Sotax AT7 UV Dissolution System, Stax, Allschwil, Switzerland) and a spectrophotometer (PerkinElmer, Lambda 25, PerkinElmer, Inc., Waltham, Mass.), the software used for the test and for calculating the results was WinSotax (Sotax). […] When not granulated, the L-cysteine was dissolved rapidly (100% in 5 minutes).

Each structure is given as a SMILES string.

`N[C@@H](CS)C(=O)O` [L-cysteine] returned a L-cysteine dissolved of 100%.

The record behind these values is patent US20160022620A1, “ENCAPSULATED COMPOSITION FOR BINDING ALDEHYDES IN THE STOMACH” (BIOHIT OYJ, priority 2013, published 2016).
